Values after ≈ are worked out from the molar mass of the structure shown.
Tests used:
Type in all cases: functional
Shigella dysenteriae = test: Antibacterial activity against Shigella dysenteriae by micro broth dilution method
Staphylococcus aureus [1] = test: Antibacterial activity against methicillin-resistant Staphylococcus aureus N315 by micro broth dilution method
Staphylococcus aureus [2] = test: Antibacterial activity against Staphylococcus aureus ATCC 25923 by micro broth dilution method
Micrococcus luteus = test: Antibacterial activity against Micrococcus luteus ATCC 4698 by micro broth dilution method; conditions: NCTC 2665
Bacillus spizizenii = test: Antibacterial activity against Bacillus subtilis ATCC 6633 by micro broth dilution method
Escherichia coli [3] = test: Antibacterial activity against Escherichia coli DH52 by micro broth dilution method
Escherichia coli [4] = test: Antibacterial activity against Escherichia coli JM109 by micro broth dilution method
Pseudomonas aeruginosa = test: Antibacterial activity against Pseudomonas aeruginosa ATCC 27853 by micro broth dilution method
[5] = Antibacterial activity against Bacillus proteus ATCC 13315 by micro broth dilution method
Salmonella enterica = test: Antibacterial activity against Salmonella enterica ATCC 14028 by micro broth dilution method
[6] = Antifungal activity against Candida mycoderma ATCC 9888 after 24 hrs by micro broth dilution method; conditions: Candida vini
Cyberlindnera jadinii = test: Antifungal activity against Candida utilis ATCC 9950 after 24 hrs by micro broth dilution method; conditions: Williopsis jadinii, ATCC 9950, 24 h
Aspergillus flavus = test: Antifungal activity against Aspergillus flavus ATCC 204304 after 24 hrs by micro broth dilution method; conditions: ATCC 204304, 24 h
Saccharomyces cerevisiae = test: Antifungal activity against Saccharomyces cerevisiae ATCC 9763 after 24 hrs by micro broth dilution method; conditions: ATCC 9763, 24 h
Candida albicans = test: Antifungal activity against Candida albicans ATCC 10231 after 24 hrs by micro broth dilution method; conditions: ATCC 10231, 24 h

| SMILES | MIC (Shigella dysenteriae) [µg/mL] | MIC (Staphylococcus aureus [1]) [µg/mL] | MIC (Staphylococcus aureus [2]) [µg/mL] | MIC (Micrococcus luteus) [µg/mL] | MIC (Bacillus spizizenii) [µg/mL] | MIC (Escherichia coli [3]) [µg/mL] | MIC (Escherichia coli [4]) [µg/mL] | MIC (Pseudomonas aeruginosa) [µg/mL] | MIC [5] [µg/mL] | MIC (Salmonella enterica) [µg/mL] | MIC80 [6] [µg/mL] | MIC80 (Cyberlindnera jadinii) [µg/mL] | MIC80 (Aspergillus flavus) [µg/mL] | MIC80 (Saccharomyces cerevisiae) [µg/mL] | MIC80 (Candida albicans) [µg/mL] |
| --- | --- | --- | --- | --- | --- | --- | --- | --- | --- | --- | --- | --- | --- | --- | --- |
| O=C(O)c1cn(C2CC2)c2cc(N3CCN(Cc4nc5ccc(Br)cc5[nH]4)CC3)c(F)cc2c1=O | 16 (≈ 29.6 µM) | 4 (≈ 7.4 µM) | 64 (≈ 118 µM) | 16 (≈ 29.6 µM) | 16 (≈ 29.6 µM) | 8 (≈ 14.8 µM) | 32 (≈ 59.2 µM) | 1 (≈ 1.85 µM) | 8 (≈ 14.8 µM) | 4 (≈ 7.4 µM) | 16 (≈ 29.6 µM) | 4 (≈ 7.4 µM) | 2 (≈ 3.7 µM) | 4 (≈ 7.4 µM) | 2 (≈ 3.7 µM) |
| CCn1cc(C(=O)O)c(=O)c2cc(F)c(N3CCN(Cc4nc5ccccc5n4CC)CC3)cc21 | 128 (≈ 268 µM) | 8 (≈ 16.8 µM) | 128 (≈ 268 µM) | 4 (≈ 8.38 µM) | 2 (≈ 4.19 µM) | 4 (≈ 8.38 µM) | 32 (≈ 67 µM) | 32 (≈ 67 µM) | 1 (≈ 2.09 µM) | 0.5 (≈ 1.05 µM) | 0.25 (≈ 0.524 µM) | 8 (≈ 16.8 µM) | 32 (≈ 67 µM) | 64 (≈ 134 µM) | 4 (≈ 8.38 µM) |
| O=C(O)c1cn(C2CC2)c2cc(N3CCN(Cc4nc5ccc(F)cc5[nH]4)CC3)c(F)cc2c1=O | 2 (≈ 4.17 µM) | 2 (≈ 4.17 µM) | 4 (≈ 8.34 µM) | 2 (≈ 4.17 µM) | 0.5 (≈ 1.04 µM) | 1 (≈ 2.09 µM) | 4 (≈ 8.34 µM) | 2 (≈ 4.17 µM) | 1 (≈ 2.09 µM) | 1 (≈ 2.09 µM) | 2 (≈ 4.17 µM) | 1 (≈ 2.09 µM) | 1 (≈ 2.09 µM) | 0.5 (≈ 1.04 µM) | 8 (≈ 16.7 µM) |
| CCCCCCn1c(CN2CCN(c3cc4c(cc3F)c(=O)c(C(=O)O)cn4C3CC3)CC2)nc2ccccc21 | 64 (≈ 117 µM) | 128 (≈ 235 µM) | 256 (≈ 469 µM) | 32 (≈ 58.6 µM) | 16 (≈ 29.3 µM) | 16 (≈ 29.3 µM) | 64 (≈ 117 µM) | 16 (≈ 29.3 µM) | 16 (≈ 29.3 µM) | 16 (≈ 29.3 µM) | 8 (≈ 14.7 µM) | 32 (≈ 58.6 µM) | 128 (≈ 235 µM) | 128 (≈ 235 µM) | 16 (≈ 29.3 µM) |
| CCCCCCCCCCCCCCCCCCn1c(CN2CCN(c3cc4c(cc3F)c(=O)c(C(=O)O)cn4C3CC3)CC2)nc2ccccc21 | 64 (≈ 89.6 µM) | 64 (≈ 89.6 µM) | 64 (≈ 89.6 µM) | 128 (≈ 179 µM) | 64 (≈ 89.6 µM) | 128 (≈ 179 µM) | 128 (≈ 179 µM) | 32 (≈ 44.8 µM) | 64 (≈ 89.6 µM) | 16 (≈ 22.4 µM) | 64 (≈ 89.6 µM) | 128 (≈ 179 µM) | 64 (≈ 89.6 µM) | 64 (≈ 89.6 µM) | 128 (≈ 179 µM) |
| CCn1cc(C(=O)O)c(=O)c2cc(F)c(N3CCN(Cc4nc5ccc(F)cc5[nH]4)CC3)cc21 | 8 (≈ 17.1 µM) | 16 (≈ 34.2 µM) | 16 (≈ 34.2 µM) | 0.5 (≈ 1.07 µM) | 8 (≈ 17.1 µM) | 16 (≈ 34.2 µM) | 32 (≈ 68.5 µM) | 4 (≈ 8.56 µM) | 2 (≈ 4.28 µM) | 8 (≈ 17.1 µM) | 1 (≈ 2.14 µM) | 0.25 (≈ 0.535 µM) | 0.5 (≈ 1.07 µM) | 0.5 (≈ 1.07 µM) | 2 (≈ 4.28 µM) |
| CCCCCCCCCCCCn1c(CN2CCN(c3cc4c(cc3F)c(=O)c(C(=O)O)cn4C3CC3)CC2)nc2ccccc21 | 2 (≈ 3.18 µM) | 64 (≈ 102 µM) | 32 (≈ 50.8 µM) | 4 (≈ 6.35 µM) | 4 (≈ 6.35 µM) | 8 (≈ 12.7 µM) | 16 (≈ 25.4 µM) | 4 (≈ 6.35 µM) | 4 (≈ 6.35 µM) | 16 (≈ 25.4 µM) | 4 (≈ 6.35 µM) | 32 (≈ 50.8 µM) | 4 (≈ 6.35 µM) | 8 (≈ 12.7 µM) | 64 (≈ 102 µM) |
| CCn1cc(C(=O)O)c(=O)c2cc(F)c(N3CCN(Cc4nc5ccccc5n4Cc4ccccc4F)CC3)cc21 | 512 (≈ 918 µM) | 256 (≈ 459 µM) | 512 (≈ 918 µM) | 512 (≈ 918 µM) | 128 (≈ 230 µM) | 512 (≈ 918 µM) | 512 (≈ 918 µM) | 512 (≈ 918 µM) | 512 (≈ 918 µM) | 512 (≈ 918 µM) | 512 (≈ 918 µM) | 512 (≈ 918 µM) | 512 (≈ 918 µM) | 512 (≈ 918 µM) | 512 (≈ 918 µM) |
| O=C(O)c1cn(C2CC2)c2cc(N3CCN(Cc4nc5ccccc5n4Cc4ccccc4Cl)CC3)c(F)cc2c1=O | 16 (≈ 27.3 µM) | 4 (≈ 6.83 µM) | 16 (≈ 27.3 µM) | 4 (≈ 6.83 µM) | 0.5 (≈ 0.853 µM) | 2 (≈ 3.41 µM) | 16 (≈ 27.3 µM) | 2 (≈ 3.41 µM) | 1 (≈ 1.71 µM) | 2 (≈ 3.41 µM) | 4 (≈ 6.83 µM) | 1 (≈ 1.71 µM) | 0.5 (≈ 0.853 µM) | 16 (≈ 27.3 µM) | 8 (≈ 13.7 µM) |
| O=C(O)c1cn(C2CC2)c2cc(N3CCN(Cc4nc5ccccc5[nH]4)CC3)c(F)cc2c1=O | 1 (≈ 2.17 µM) | 0.125 (≈ 0.271 µM) | 0.25 (≈ 0.542 µM) | 0.125 (≈ 0.271 µM) | 0.125 (≈ 0.271 µM) | 0.125 (≈ 0.271 µM) | 0.5 (≈ 1.08 µM) | 0.5 (≈ 1.08 µM) | 0.125 (≈ 0.271 µM) | 0.125 (≈ 0.271 µM) | 0.125 (≈ 0.271 µM) | 0.125 (≈ 0.271 µM) | 0.5 (≈ 1.08 µM) | 0.0625 (≈ 0.135 µM) | 0.0625 (≈ 0.135 µM) |

Source: ChEMBL document CHEMBL3769303, “Discovery of membrane active benzimidazole quinolones-based topoisomerase inhibitors as potential DNA-binding antimicrobial agents” (Eur J Med Chem, 2016)
